{"source": "ChEMBL document CHEMBL1148570", "about": "“Acryloylamino-salicylanilides as EGFR PTK inhibitors” (Bioorg Med Chem Lett, 2006)", "data": [{"target": "Epidermal growth factor receptor (Homo sapiens) (UniProt P00533)", "sequence (P00533 whole entry)": "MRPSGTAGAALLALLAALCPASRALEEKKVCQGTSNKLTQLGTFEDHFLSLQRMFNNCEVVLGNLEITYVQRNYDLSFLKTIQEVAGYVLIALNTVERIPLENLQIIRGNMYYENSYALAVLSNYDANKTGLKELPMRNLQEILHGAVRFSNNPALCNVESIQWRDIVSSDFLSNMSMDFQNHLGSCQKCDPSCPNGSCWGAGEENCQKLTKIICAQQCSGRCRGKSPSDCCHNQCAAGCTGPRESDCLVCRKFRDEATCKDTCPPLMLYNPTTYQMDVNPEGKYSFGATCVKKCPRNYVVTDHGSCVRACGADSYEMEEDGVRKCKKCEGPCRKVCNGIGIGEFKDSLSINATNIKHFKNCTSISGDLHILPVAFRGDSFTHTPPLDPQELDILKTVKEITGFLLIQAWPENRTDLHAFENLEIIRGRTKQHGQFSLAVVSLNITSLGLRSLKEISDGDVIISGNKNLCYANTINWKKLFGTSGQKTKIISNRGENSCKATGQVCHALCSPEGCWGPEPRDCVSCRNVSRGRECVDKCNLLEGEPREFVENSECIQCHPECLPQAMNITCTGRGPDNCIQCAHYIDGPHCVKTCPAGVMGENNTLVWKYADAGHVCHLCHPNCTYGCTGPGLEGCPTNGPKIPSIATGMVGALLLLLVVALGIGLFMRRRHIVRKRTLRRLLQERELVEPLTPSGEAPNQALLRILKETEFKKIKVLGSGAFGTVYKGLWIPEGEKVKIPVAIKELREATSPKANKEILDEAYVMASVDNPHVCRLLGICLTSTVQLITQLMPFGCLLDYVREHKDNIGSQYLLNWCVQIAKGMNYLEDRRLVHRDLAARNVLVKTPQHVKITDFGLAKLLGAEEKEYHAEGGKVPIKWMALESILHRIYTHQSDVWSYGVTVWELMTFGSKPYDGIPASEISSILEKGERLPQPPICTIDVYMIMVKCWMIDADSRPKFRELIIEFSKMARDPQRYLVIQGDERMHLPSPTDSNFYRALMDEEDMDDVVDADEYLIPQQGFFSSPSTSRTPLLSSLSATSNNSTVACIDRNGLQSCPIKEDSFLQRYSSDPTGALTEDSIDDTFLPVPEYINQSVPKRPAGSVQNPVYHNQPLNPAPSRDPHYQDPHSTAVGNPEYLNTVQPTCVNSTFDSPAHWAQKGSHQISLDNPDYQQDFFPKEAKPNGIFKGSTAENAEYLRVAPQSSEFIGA", "experiment": "Inhibition of EGFR PTK at 10 uM", "units": {"inhibition": "%"}, "values": [{"smiles": "C=CC(=O)Nc1ccc(C(=O)Nc2cccc(C(=O)N(CC)CC)c2)c(O)c1", "inhibition": 63.9}, {"smiles": "C=CC(=O)Nc1ccc(C(=O)Nc2cccc(Cl)c2)c(O)c1", "inhibition": 62.6}, {"smiles": "CCC(=O)Nc1ccc(C(=O)Nc2cccc(C(=O)N(CC)CC)c2)c(O)c1", "inhibition": 46.6}, {"smiles": "C=CC(=O)Nc1ccc(O)c(C(=O)Nc2cccc(Cl)c2)c1", "inhibition": 73.1}, {"smiles": "C=CC(=O)Nc1ccc(C(=O)Nc2cccc(Oc3ccccc3)c2)c(O)c1", "inhibition": 91.2}, {"smiles": "C=CC(=O)Nc1ccc(C(=O)Nc2cccc(C(=O)N3CCCC3)c2)c(O)c1", "inhibition": 91}, {"smiles": "CCC(=O)Nc1ccc(C(=O)Nc2ccc(Oc3ccccc3)cc2)c(O)c1", "inhibition": 48.5}, {"smiles": "C=CC(=O)Nc1ccc(C(=O)Nc2cccc(C(O)c3ccccc3)c2)c(O)c1", "note": "(configuration not stated)", "inhibition": 93.5}, {"smiles": "C=CC(=O)Nc1ccc(C(=O)Nc2cccc(C(O)c3ccccc3)c2)c(OC)c1", "note": "(configuration not stated)", "inhibition": 5.84}, {"smiles": "C=CC(=O)Nc1ccc(C(=O)Nc2cccc(C(=O)N3CCCCC3)c2)c(O)c1", "inhibition": 91.9}, {"smiles": "C=CC(=O)Nc1ccc(C(=O)Nc2ccc(Oc3ccccc3)cc2)c(O)c1", "inhibition": 62.2}, {"smiles": "C=CC(=O)Nc1ccc(O)c(C(=O)Nc2cccc(Br)c2)c1", "inhibition": 93}, {"smiles": "C=CC(=O)Nc1ccc(C(=O)Nc2cccc(Br)c2)c(O)c1", "inhibition": 91.3}, {"smiles": "C=CC(=O)Nc1ccc(C(=O)Nc2cccc(Oc3ccccc3)c2)c(OC)c1", "inhibition": 1.59}]}, {"target": "Epidermal growth factor receptor (Homo sapiens) (UniProt P00533)", "experiment": "Inhibition of EGFR PTK at 0.1 uM", "units": {"inhibition": "%"}, "values": [{"smiles": "C=CC(=O)Nc1ccc(C(=O)Nc2cccc(C(=O)N(CC)CC)c2)c(O)c1", "inhibition": 40.4}, {"smiles": "C=CC(=O)Nc1ccc(C(=O)Nc2cccc(Cl)c2)c(O)c1", "inhibition": 21.6}, {"smiles": "C=CC(=O)Nc1ccc(O)c(C(=O)Nc2cccc(Cl)c2)c1", "inhibition": 23.3}, {"smiles": "C=CC(=O)Nc1ccc(C(=O)Nc2cccc(Oc3ccccc3)c2)c(O)c1", "inhibition": 86.6}, {"smiles": "C=CC(=O)Nc1ccc(C(=O)Nc2cccc(C(=O)N3CCCC3)c2)c(O)c1", "inhibition": 84.2}, {"smiles": "C=CC(=O)Nc1ccc(C(=O)Nc2cccc(C(O)c3ccccc3)c2)c(O)c1", "note": "(configuration not stated)", "inhibition": 84.8}, {"smiles": "C=CC(=O)Nc1ccc(C(=O)Nc2cccc(C(=O)N3CCCCC3)c2)c(O)c1", "inhibition": 88}, {"smiles": "C=CC(=O)Nc1ccc(C(=O)Nc2ccc(Oc3ccccc3)cc2)c(O)c1", "inhibition": 0.8}, {"smiles": "C=CC(=O)Nc1ccc(O)c(C(=O)Nc2cccc(Br)c2)c1", "inhibition": 89.5}, {"smiles": "C=CC(=O)Nc1ccc(C(=O)Nc2cccc(Br)c2)c(O)c1", "inhibition": 88.2}]}, {"target": "Epidermal growth factor receptor (Homo sapiens) (UniProt P00533)", "experiment": "Inhibition of EGFR PTK at 0.01 uM", "units": {"inhibition": "%"}, "values": [{"smiles": "C=CC(=O)Nc1ccc(C(=O)Nc2cccc(C(=O)N(CC)CC)c2)c(O)c1", "inhibition": 14.1}, {"smiles": "C=CC(=O)Nc1ccc(C(=O)Nc2cccc(Oc3ccccc3)c2)c(O)c1", "inhibition": 18.8}, {"smiles": "C=CC(=O)Nc1ccc(C(=O)Nc2cccc(C(=O)N3CCCC3)c2)c(O)c1", "inhibition": 26}, {"smiles": "C=CC(=O)Nc1ccc(C(=O)Nc2cccc(C(O)c3ccccc3)c2)c(O)c1", "note": "(configuration not stated)", "inhibition": 49.3}, {"smiles": "C=CC(=O)Nc1ccc(C(=O)Nc2cccc(C(=O)N3CCCCC3)c2)c(O)c1", "inhibition": 75.1}, {"smiles": "C=CC(=O)Nc1ccc(C(=O)Nc2ccc(Oc3ccccc3)cc2)c(O)c1", "inhibition": 0}, {"smiles": "C=CC(=O)Nc1ccc(O)c(C(=O)Nc2cccc(Br)c2)c1", "inhibition": 52.9}, {"smiles": "C=CC(=O)Nc1ccc(C(=O)Nc2cccc(Br)c2)c(O)c1", "inhibition": 76}]}, {"target": "Epidermal growth factor receptor (Homo sapiens) (UniProt P00533)", "experiment": "Inhibition of EGFR PTK at 1 uM", "units": {"inhibition": "%"}, "values": [{"smiles": "C=CC(=O)Nc1ccc(C(=O)Nc2cccc(C(=O)N(CC)CC)c2)c(O)c1", "inhibition": 54.4}, {"smiles": "C=CC(=O)Nc1ccc(C(=O)Nc2cccc(Cl)c2)c(O)c1", "inhibition": 46.3}, {"smiles": "C=CC(=O)Nc1ccc(O)c(C(=O)Nc2cccc(Cl)c2)c1", "inhibition": 38.3}, {"smiles": "C=CC(=O)Nc1ccc(C(=O)Nc2cccc(Oc3ccccc3)c2)c(O)c1", "inhibition": 89.3}, {"smiles": "C=CC(=O)Nc1ccc(C(=O)Nc2cccc(C(=O)N3CCCC3)c2)c(O)c1", "inhibition": 88.6}, {"smiles": "C=CC(=O)Nc1ccc(C(=O)Nc2cccc(C(O)c3ccccc3)c2)c(O)c1", "note": "(configuration not stated)", "inhibition": 91.7}, {"smiles": "C=CC(=O)Nc1ccc(C(=O)Nc2cccc(C(=O)N3CCCCC3)c2)c(O)c1", "inhibition": 91.2}, {"smiles": "C=CC(=O)Nc1ccc(C(=O)Nc2ccc(Oc3ccccc3)cc2)c(O)c1", "inhibition": 28.1}, {"smiles": "C=CC(=O)Nc1ccc(O)c(C(=O)Nc2cccc(Br)c2)c1", "inhibition": 90.6}, {"smiles": "C=CC(=O)Nc1ccc(C(=O)Nc2cccc(Br)c2)c(O)c1", "inhibition": 89.9}]}]}
